Patent publication US7459557B2, “Substituted isoindole-1,3-diones” (Janssen Pharmaceutica N.V., priority 2005, dated 2008)
Values joined by “and” are separate entries in the source; they are usually repeats but may differ in a detail not shown here. Equal entries are not always repeated.

Columns and labels:
[1] = target: T1, α1b-AR (Homo sapiens, UniProt P35368); assay: α1-adrenergic receptor radio-ligand (125I-HEAT) binding assay, α1b subtype; settings: COS-7 cell membranes transfected with α1b subtype, 125I-HEAT 50 pM
T1 construct: expressed in transfected cells; host or cells: COS-7 (African Green monkey kidney) cell membranes
T1 sequence (P35368 1-520): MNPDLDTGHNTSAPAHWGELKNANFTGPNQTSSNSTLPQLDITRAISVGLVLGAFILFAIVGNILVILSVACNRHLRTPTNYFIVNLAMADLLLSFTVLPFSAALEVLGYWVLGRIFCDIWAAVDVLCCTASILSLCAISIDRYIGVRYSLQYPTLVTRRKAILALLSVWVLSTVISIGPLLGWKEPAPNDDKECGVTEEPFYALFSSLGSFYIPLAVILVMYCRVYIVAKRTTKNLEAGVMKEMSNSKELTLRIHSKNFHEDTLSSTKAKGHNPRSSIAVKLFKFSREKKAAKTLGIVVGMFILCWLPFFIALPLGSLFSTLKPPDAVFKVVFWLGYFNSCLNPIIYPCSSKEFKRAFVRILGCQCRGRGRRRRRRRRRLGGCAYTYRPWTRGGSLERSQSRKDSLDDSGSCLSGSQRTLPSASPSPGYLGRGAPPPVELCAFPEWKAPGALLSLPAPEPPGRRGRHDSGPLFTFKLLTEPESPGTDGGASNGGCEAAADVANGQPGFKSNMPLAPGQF
Experimental: (§1) α1-Adrenergic Receptor Binding Assay
(§2) Preparation of COS Cell Membranes
(§3) Membranes were prepared from COS-7 cells (African Green monkey kidney SV40-transformed cells) that had been transfected with one of the three α1-AR subtypes (Genbank accession number for the α1a subtype: AF013261; Genbank accession number for the α1b subtype: NM000679; Genbank accession number for the α1d subtype: NM000678) using the following method: COS cells from ten 100 mm tissue culture plates were scraped into a 5 mL volume of TE (a mixture of 50 mM Tris-HCl, 5 mM EDTA, pH 7.4). The cell suspension was disrupted with a Brinkman Polytron (at a setting of 8) for 10 sec. The disrupted cells were centrifuged at 1000×g for 10 min at 4° C. Supernatants were centrifuged at 34,500×g for 20 min at 4° C. The membrane pellets were suspended in a 2 mL volume of TNE (a mixture of 50 mM Tris-HCl, 5 mM EDTA and 150 mM NaCl at pH 7.4). An aliquot of the membrane suspension was stored at −70° C. until use. The protein concentration was determined using the BioRad “DC” protein assay kit following membrane solubilization with Triton X-100.
(§4) Radio-Ligand Binding Assay
Triplicate determinations of radio-ligand binding in the presence of increasing concentrations of testing compound were made. The reagents were added to 96-well polypropylene plate wells. Each assay well contained 140 μL TNE, 25 μL ^125I-2-(β-4-hydroxyphenyl)ethylaminomethyltetralone (^125I-HEAT) (specific activity 2200 Ci/mmol, Dupont-New England Nuclear, 50 pM final), 10 μL testing compound dissolved in dimethyl sulfoxide (DMSO) (1 pM to 10 μM in half-log increments, final), and 25 μL appropriate α1-AR membrane subtype suspension in TNE (0.5 ng/μL for the α1a and α1b subtypes and 13 ng/μL for the α1d subtype). The plate was incubated at rt for 1 hr. The contents of the wells were filtered through a glass filter (type C) (GF/C) membrane Unifilter plate (Packard Instruments) using the Packard Filtermate cell harvester. The filter plates were dried in a vacuum oven for 30 min at 40° C. 25 μL Microscint 20 liquid scintillation fluid (Packard Instuments) was added to each well. The radioactive content was analyzed in the TopCount microplate scintillation counter (Packard Instruments).
The Ki values (in nM) shown in Table 1 were determined using GraphPad Prism software.

[2] = target: T2, α1d-AR (Homo sapiens, UniProt P25100); assay: α1-adrenergic receptor radio-ligand (125I-HEAT) binding assay, α1d subtype; settings: COS-7 cell membranes transfected with α1d subtype, 125I-HEAT 50 pM
T2 construct: expressed in transfected cells; host or cells: COS-7 (African Green monkey kidney) cell membranes
T2 sequence (P25100 1-572): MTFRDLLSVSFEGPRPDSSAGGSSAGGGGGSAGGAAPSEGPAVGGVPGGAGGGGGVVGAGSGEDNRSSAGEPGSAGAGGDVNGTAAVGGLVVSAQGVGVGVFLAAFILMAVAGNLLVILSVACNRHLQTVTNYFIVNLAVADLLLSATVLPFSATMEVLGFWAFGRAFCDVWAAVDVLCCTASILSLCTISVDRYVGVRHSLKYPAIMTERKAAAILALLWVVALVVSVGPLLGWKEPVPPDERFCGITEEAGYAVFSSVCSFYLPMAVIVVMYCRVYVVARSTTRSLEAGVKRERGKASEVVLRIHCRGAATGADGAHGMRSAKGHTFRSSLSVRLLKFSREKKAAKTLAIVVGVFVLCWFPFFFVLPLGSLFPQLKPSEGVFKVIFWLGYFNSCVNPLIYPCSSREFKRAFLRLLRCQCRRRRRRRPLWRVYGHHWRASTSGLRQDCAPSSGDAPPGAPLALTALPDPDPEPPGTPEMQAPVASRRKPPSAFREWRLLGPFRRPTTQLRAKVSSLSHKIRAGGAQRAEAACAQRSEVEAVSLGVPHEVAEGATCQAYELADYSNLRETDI
Experimental: as §1, §2, §3, §4
(§5) Triplicate determinations of radio-ligand binding in the presence of increasing concentrations of testing compound were made. The reagents were added to 96-well polypropylene plate wells. […] The plate was incubated at rt for 1 hr. The contents of the wells were filtered through a glass filter (type C) (GF/C) membrane Unifilter plate (Packard Instruments) using the Packard Filtermate cell harvester. The filter plates were dried in a vacuum oven for 30 min at 40° C. 25 μL Microscint 20 liquid scintillation fluid (Packard Instuments) was added to each well. The radioactive content was analyzed in the TopCount microplate scintillation counter (Packard Instruments).

[3] = target: T3, α1a-AR (Homo sapiens, UniProt P35348); assay: α1-adrenergic receptor radio-ligand (125I-HEAT) binding assay, α1a subtype; settings: COS-7 cell membranes transfected with α1a subtype, 125I-HEAT 50 pM
T3 construct: expressed in transfected cells; host or cells: COS-7 (African Green monkey kidney) cell membranes
T3 sequence (P35348 1-455 isoform P35348-4): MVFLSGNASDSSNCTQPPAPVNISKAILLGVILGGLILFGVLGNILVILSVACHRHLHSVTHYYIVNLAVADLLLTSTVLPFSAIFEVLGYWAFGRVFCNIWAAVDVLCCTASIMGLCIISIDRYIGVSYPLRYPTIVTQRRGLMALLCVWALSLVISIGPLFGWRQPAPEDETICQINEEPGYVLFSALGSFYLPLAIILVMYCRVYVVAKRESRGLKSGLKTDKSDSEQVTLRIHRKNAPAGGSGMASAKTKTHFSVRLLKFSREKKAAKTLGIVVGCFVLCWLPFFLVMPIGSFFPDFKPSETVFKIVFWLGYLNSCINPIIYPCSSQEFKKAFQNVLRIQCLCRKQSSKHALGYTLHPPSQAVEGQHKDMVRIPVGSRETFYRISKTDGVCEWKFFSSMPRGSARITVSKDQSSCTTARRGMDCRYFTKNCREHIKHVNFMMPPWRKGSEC
Experimental: as §1, §2, §3, §4, §5

[4] = tested on: α1a and α1d subtypes over the α1b subtype; settings: cited from earlier work

Row | SMILES | Ki [1] | Ki [2] | Ki [3] | selectivity for the α1a and α1d subtypes over the α1b subtype [4]
1 | CC(C)Oc1ccccc1N1CCN(C2CCC(N3C(=O)c4c(F)c(F)c(F)c(F)c4C3=O)CC2)CC1 (mixture of isomers) [Cpd 1, 4,5,6,7-tetrafluoro-2-{4-[4-(2-isopropoxy-phenyl)-piperazin-1-yl]-cyclohexyl}-isoindole-1,3-dione] | 4110 nM | 30.2 nM | 37.8 nM | 
2 | CC(C)Oc1ccccc1N1CCN(C2CCC(N3C(=O)c4cc(Cl)c(Cl)cc4C3=O)CC2)CC1 (mixture of isomers) [Cpd 2, 5,6-dichloro-2-{4-[4-(2-isopropoxy-phenyl)-piperazin-1-yl]-cyclohexyl}-isoindole-1,3-dione] | 1080 nM | 0.31 nM | 2.69 nM | 
3 | CC(C)Oc1ccccc1N1CCN(C2CCC(N3C(=O)c4cccnc4C3=O)CC2)CC1 (mixture of isomers) [Cpd 5, 6-{4-[4-(2-isopropoxy-phenyl)-piperazin-1-yl]-cyclohexyl}-pyrrolo[3,4-b]pyridine-5,7-dione] | 44.6 nM | 1.45 nM | 0.75 nM | 
4 | CC(C)Oc1ccccc1N1CCN(C2CCC(N3C(=O)c4ccncc4C3=O)CC2)CC1 (mixture of isomers) [Cpd 6, 2-{4-[4-(2-isopropoxy-phenyl)-piperazin-1-yl]-cyclohexyl}-pyrrolo[3,4-c]pyridine-1,3-dione] | 22.4 nM | 0.77 nM | 0.43 nM | 
5 | CC(C)Oc1ccccc1N1CCN(C2CCC(N3C(=O)c4ccc5ccccc5c4C3=O)CC2)CC1 (mixture of isomers) [Cpd 7, 2-{4-[4-(2-isopropoxy-phenyl)-piperazin-1-yl]-cyclohexyl}-benzo[e]isoindole-1,3-dione] | 16 nM and 14 nM | 0.27 nM and 0.13 nM | 0.58 nM and 3 nM | 
6 | CC(C)Oc1ccccc1N1CCN([C@H]2CC[C@H](N3C(=O)c4cccc(F)c4C3=O)CC2)CC1 [Cpd 3, 4-fluoro-r-2-{t-4-[4-(2-isopropoxy-phenyl)-piperazin-1-yl]-cyclohexyl}-isoindole-1,3-dione] | 17.9 nM | 0.09 nM | 0.2 nM | 
7 | CC(C)Oc1ccccc1N1CCN([C@H]2CC[C@@H](N3C(=O)c4cccc(F)c4C3=O)CC2)CC1 [Cpd 4, 4-fluoro-r-2-{c-4-[4-(2-isopropoxy-phenyl)-piperazin-1-yl]-cyclohexyl}-isoindole-1,3-dione] | 164 nM and 129 nM and 88 nM | 3.24 nM and 13.5 nM and 28 nM | 0.873 nM and 1.1 nM and 0.95 nM | 
8 | CC(C)Oc1ccccc1N1CCN([C@H]2CC[C@@H](N3C(=O)c4ccc5ccc(F)cc5c4C3=O)CC2)CC1 [Cpd 8, 8-fluoro-r-2-{c-4-[4-(2-isopropoxy-phenyl)-piperazin-1-yl]-cyclohexyl}-benzo[e]isoindole-1,3-dione] | 269 nM | 16.4 nM | 15 nM | 
9 | CC(C)Oc1ccccc1N1CCN([C@H]2CC[C@H](N3C(=O)c4ccc5ccc(F)cc5c4C3=O)CC2)CC1 [Cpd 9, 8-fluoro-r-2-{t-4-[4-(2-isopropoxy-phenyl)-piperazin-1-yl]-cyclohexyl}-benzo[e]isoindole-1,3-dione] | 35 nM and 58 nM | 0.61 nM and 0.3 nM | 1.9 nM and 5.9 nM | 
10 | CCOc1ccccc1OCCN[C@H](C)Cc1ccc(OC)c(S(N)(=O)=O)c1 [Tamsulosin] |  |  |  | about 15 fold
